Assay results published in ChEMBL document CHEMBL1142015, “New derivatives of 1alpha,25-dihydroxy-19-norvitamin D3 with two substituents at C-2: synthesis and biological activity” (Bioorg Med Chem Lett, 2005).
Values joined by “and” are separate entries in the source; they are usually repeats but may differ in a detail not shown here. Equal values may be shown once.

How the values were obtained:
[1] = target: T1, Vitamin D3 receptor (Bos taurus) (UniProt Q28037); experiment: Percent binding affinity for bovine vitamin D receptor compared to 2-Et-1-alpha,2,5-dihydroxy-19-norvitamin D3
T1 sequence (whole entry): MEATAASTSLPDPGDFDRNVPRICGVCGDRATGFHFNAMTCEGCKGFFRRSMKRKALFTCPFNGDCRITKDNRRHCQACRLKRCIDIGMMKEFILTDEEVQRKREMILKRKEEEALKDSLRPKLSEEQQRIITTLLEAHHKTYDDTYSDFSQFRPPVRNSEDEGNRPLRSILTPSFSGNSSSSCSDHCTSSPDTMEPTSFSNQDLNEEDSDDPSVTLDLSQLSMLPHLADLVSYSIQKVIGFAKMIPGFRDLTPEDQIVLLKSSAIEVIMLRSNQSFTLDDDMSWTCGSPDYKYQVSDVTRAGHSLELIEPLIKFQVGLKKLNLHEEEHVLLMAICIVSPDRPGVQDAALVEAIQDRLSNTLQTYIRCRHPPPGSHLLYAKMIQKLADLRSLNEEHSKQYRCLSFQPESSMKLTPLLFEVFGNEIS

[2] = target: T2, Vitamin D3 receptor (Homo sapiens) (UniProt P11473); experiment: Percent activation of vitamin D receptor in COS-7 cell transcription assay at 10e-8 or 10e-9 M; type: functional, cell-based
T2 sequence (whole entry): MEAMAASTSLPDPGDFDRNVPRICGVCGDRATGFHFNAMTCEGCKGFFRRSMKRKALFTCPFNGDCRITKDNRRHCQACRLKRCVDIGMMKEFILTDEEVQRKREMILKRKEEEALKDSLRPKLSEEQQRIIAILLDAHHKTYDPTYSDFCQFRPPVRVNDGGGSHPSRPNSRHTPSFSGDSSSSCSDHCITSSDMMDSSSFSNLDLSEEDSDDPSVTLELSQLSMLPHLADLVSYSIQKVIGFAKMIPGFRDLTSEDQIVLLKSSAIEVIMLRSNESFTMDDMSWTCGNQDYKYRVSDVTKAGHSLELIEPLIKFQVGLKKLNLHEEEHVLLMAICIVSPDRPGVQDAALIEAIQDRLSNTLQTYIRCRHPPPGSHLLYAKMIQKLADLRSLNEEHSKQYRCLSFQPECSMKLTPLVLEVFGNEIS

[3] = target: T1, Vitamin D3 receptor (Bos taurus); experiment: Percent binding affinity for bovine vitamin D receptor compared to 1a
[4] = target: T1, Vitamin D3 receptor (Bos taurus); experiment: Percent binding affinity for bovine vitamin D receptor compared to 2-Me-1-alpha,2,5-dihydroxy-19-norvitamin D3
[5] = target: T2, Vitamin D3 receptor (Homo sapiens); experiment: Activation of vitamin D receptor in COS-7 cell transcription assay; type: functional, cell-based

VDR affinity [3]	Structure (SMILES)	further results
5%	CCC1(O)[C@H](O)CC(=C/C=C2/CCC[C@]3(C)[C@@H]([C@@H](C)CCCC(C)(C)O)CC[C@@H]23)C[C@H]1O (stereo partly specified)	VDR affinity [1]: 200%; Transcriptional activity [2]: 92%
4% and 0.1%	COCC1(O)[C@H](O)CC(=C/C=C2/CCC[C@]3(C)[C@@H]([C@H](C)CCCC(C)(C)O)CC[C@@H]23)C[C@H]1O (stereo partly specified)	
100%	C[C@@H](CCCC(C)(C)O)[C@H]1CC[C@H]2/C(=C\C=C3C[C@@H](O)C(C)(O)[C@H](O)C3)CCC[C@]12C (stereo partly specified)	VDR affinity [4]: 23% and 18%; ED50 [5]: 3200 nM
20% and 10%	COCC1(O)[C@H](O)CC(=C/C=C2/CCC[C@]3(C)[C@@H]([C@@H](C)CCCC(C)(C)O)CC[C@@H]23)C[C@H]1O (stereo partly specified)	
	C[C@@H](CCCC(C)(C)O)[C@H]1CC[C@H]2/C(=C\C=C3C[C@@H](O)C4(CO4)[C@H](O)C3)CCC[C@]12C (stereo partly specified)	ED50 [5]: 89 nM and 18 nM
100%	C=C1/C(=C\C=C2/CCC[C@]3(C)[C@@H]([C@H](C)CCCC(C)(C)O)CC[C@@H]23)C[C@@H](O)C[C@@H]1O	
4% and 3%	C[C@H](CCCC(C)(C)O)[C@H]1CC[C@H]2/C(=C\C=C3C[C@@H](O)C4(CO4)[C@H](O)C3)CCC[C@]12C (stereo partly specified)	ED50 [5]: 5 nM and 4 nM
	C[C@H](CCCC(C)(C)O)[C@H]1CC[C@H]2/C(=C\C=C3C[C@@H](O)C(C)(O)[C@H](O)C3)CCC[C@]12C (stereo partly specified)	VDR affinity [4]: 21% and 2.6%
2% and 0.02%	C[C@H](CCCC(C)(C)O)[C@H]1CC[C@H]2/C(=C\C=C3C[C@@H](O)C(O)(CF)[C@H](O)C3)CCC[C@]12C (stereo partly specified)	
60%	C[C@@H](CCCC(C)(C)O)[C@H]1CC[C@H]2/C(=C\C=C3C[C@@H](O)C(O)(CF)[C@H](O)C3)CCC[C@]12C (stereo partly specified)	
2% and 0.05%	CCC1(O)[C@H](O)CC(=C/C=C2/CCC[C@]3(C)[C@@H]([C@H](C)CCCC(C)(C)O)CC[C@@H]23)C[C@H]1O (stereo partly specified)	
